In patent publication US20220162610A1, “NOVEL RNA TRANSCRIPT” (PTC Therapeutics, Inc., priority 2020, published 2022):

What was measured:
[1] = system: human HTT protein; assay: Pharmacodynamic study in BACHD mice, HTT protein in tissues; format: in vivo
Description: Test mice were euthanised and brain, muscle (quadriceps), and blood samples were harvested 2 hours after the last dose on Day 20. Prior to analysis, crude total protein from brain and muscle tissue samples was prepared by sample lysis in MSD® assay buffer 1 (MSD®) with Complete™ Protease Inhibitor Cocktail added (Roche Diagnostics). Tissues were then homogenised using TissueLyser II (Qiagen) plus a 5 mm stainless steel bead. The lysate was clarified by centrifugation at 16,000×g for 20 minutes at 4° C. and the total protein concentration quantified with the Pierce™ BCA Protein Assay Kit (Thermo Scientific) according to the manufacturer's instructions. Whole blood was collected by cardiac puncture into EDTA collection tubes. An aliquot (100-200 μL) was added to 1.5 mL of eBioscience™ 1× Red Blood Cell Lysis Buffer (Thermo Fisher) and mixed well for 5 minutes before collecting the white blood cells (WBC) by centrifugation at 400×g. The supernatant was discarded, and the pellet of WBCs was frozen in liquid nitrogen and stored at −70° C. Brain and muscle sample lysates were analysed for hHTT and KRAS protein expression using the ECL protein assay (described previously); using the same method WBC samples were also analysed for hHTT expression but not KRAS.
Each tissue sample was tested in duplicate using the ECL protein assay and the average hHTT and KRAS readouts were calculated. The ratio of the mean hHTT signal to the mean KRAS signal (×1000) was determined for each test animal. The hHTT/KRAS ratio grand mean for the vehicle group of five test animals was calculated and the fold change relative to the vehicle grand mean was determined for each test animal in each group. Percent hHTT (% hHTT) lowering normalised to KRAS was determined for each test animal by subtracting the fold change from one and multiplying the difference by 100. Each experiment was performed twice yielding ten % hHTT lowering values for each treatment group. For each treatment group, the mean % hHTT lowering plus the standard error of the mean (SEM) was plotted as a bar graph. The % hHTT lowering in white blood cell samples was determined without KRAS using the grand hHTT vehicle mean instead of the grand hHTT/KRAS ratio vehicle mean.
BACHD: Pharmacodynamic (PD) evaluations were performed in BACHD mice aged 6-10 weeks. Compound or vehicle (HPMC/0.1% Tween 80) was administered to BACHD mice (5 female mice per group) once daily for 21 doses (QD×21) by oral gavage; dosing volumes were 10 mL/kg. Each animal was regularly observed for mortality or signs of pain, distress, or overt toxicity and findings were recorded. Body weights were recorded at the start and at least once a week during the course of the study. As described previously, tissue samples were obtained and prepared for ECL protein assay analysis from each animal as described previously.

[2] = system: HTT protein; assay: HTT protein electrochemiluminescence (ECL) assay in HD patient fibroblasts, 96 h; format: cell-based, human; conditions: for HTT protein level: fibroblasts derived from HD patients, 96 h
Description: Human fibroblasts derived from a homozygous patient with HD (GM4857) were cultured for 96 hours in the presence of test compounds (in 0.5% DMSO) or controls at 37° C. in a humidified 5% CO2 atmosphere. After 96 hours, cells were lysed and frozen. HTT protein levels were measured in lysates as described below. Compounds that decreased HTT protein levels relative to DMSO control were further tested in a dose response assay.
For analysis in the electrochemiluminescence (ECL) assays, test compounds were serially diluted 3-fold in 100% DMSO (Sigma) to generate a 7-point concentration curve. A solution of test compound (500 nL, 200× in DMSO) was added to each test well with Acoustic Transfer System (EDC Biosystems); final concentration of DMSO was 0.5%. Fibroblasts were seeded in 96-well flat-bottomed plates (Thermo Fisher) at 4×10^3 cells/well in 100 μl of culture medium containing the test compound or DMSO vehicle control and incubated for 96 hours (37° C., 5% CO2, 100% relative humidity). After removal of the supernatant, cells were lysed in 50 μL of 1×LB11 extraction buffer (50 mM Tris (pH 7.4), 300 mM NaCl, 10% [w/v] glycerol, 3 mM EDTA, 1 mM MgCl2, 20 mM glycerophosphate, 25 mM NaF, 1% Triton X-100), containing a Complete™ protease inhibitor cocktail (Roche Diagnostics) with shaking at 4° C. for 30 minutes; the plates were then stored at −20° C.
Meso Scale Discovery® 96-well plates (MSD®) were coated overnight at 4° C. with primary antibodies in phosphate-buffered saline (PBS; 30 μl/well). The plates were washed three times with 0.05% Tween-20 in 1×PBS (PBS-T; 200 μl/well) then blocked (100 μl/well; 5% bovine serum albumin [BSA] in PBS-T) for 5-6 hours at room temperature (RT) with shaking. Plates were then washed three times with PBS-T. Cell lysates were transferred to the antibody coated plates (25 μl/well) and incubated with shaking overnight at 4° C. After removal of the lysates, the plates were washed three times with PBS-T, and 25 μl of detection antibody in 1% BSA, PBS-T was added to each well and incubated with shaking for 1 hour at room temperature. After three washes with PBS-T, 25 μl of Sulfo-Tag secondary antibody (MSD®; 0.25 μg/ml in 1% BSA, PBS-T) was added to each well and incubated with shaking for 1 hour at RT. After washing three times with PBS-T, 150 μl of read buffer T with surfactant (MSD®) was added to each empty well and the plate was imaged on the SI 6000 imager (MSD®) according to manufacturers' instructions for 96-well plates. Primary capture antibodies included: anti-polyglutamine-expanded HTT mouse monoclonal antibody (mAb) clone MW1 (1 μg/mL; Developmental Studies Hybridoma Bank); anti-HTT MAB2166 mAb (1 μg/mL; Millipore); anti-human KRAS rabbit polyclonal antibody (1 μg/mL; Thermo Fisher Scientific). Detection antibodies included: Huntingtin (D7F7) XP® Rabbit mAb (0.25 μg/ml; Cell Signalling Technology®); anti-hKRAS mouse mAb (0.25 μg/ml; LSBIO).

Structure (SMILES): CCN1CCC(c2cc3c(F)cc(-c4cc(C)c5nc(C)cn5n4)cc3nn2)CC1 [HTT-D3]
- HTT protein within the brain and peripheral tissues ([1]; BACHD mice): dose dependent and more equitable lowering of HTT protein

Structure (SMILES): CC1(C)CC(Oc2ccc(-c3ccc(-c4cn[nH]c4)cc3O)nn2)CC(C)(C)N1 [HTT-C2]
- time for protein expression to return to control levels after treatment cessation ([1]; 10 mg/kg, brain): ≤ 10 days
- time at which maximal reductions in HTT levels were achieved ([1]; 10 mg/kg, brain, time course 4-63 days): ≤ 21 days
- lowering of HTT protein throughout the whole brain ([1]; 10 mg/kg, incl. striatum and cortex): > 50%
- HTT reduction in blood cells, muscle, heart, liver and kidney ([1]; at doses required to achieve 50% HTT lowering in the brain): > 90%
- HTT levels within brain tissue ([1]; daily oral administration, 3 or 10 mg/kg): dose-dependent reduction of HTT levels within brain tissue
- HTT protein within peripheral tissues ([1]; oral administration): dose dependently lowered HTT protein within peripheral tissues

Structure (SMILES): CCN1CCC(c2cc(C)c3nc(-c4ccc5nn(C)cc5c4)cc(=O)n3c2)CC1 [HTT-D1]
- HTT protein level [2]: dose-dependent decrease

Structure (SMILES): CC1(C)CC(Oc2ccc(-c3ccc(-c4ccnc(O)c4)cc3O)nn2)CC(C)(C)N1 [HTT-C1]
- HTT protein level [2]: dose-dependent decrease
- wild type and mutant HTT protein expression ([2]; fibroblasts, 96-hour treatment): lowered HTT protein expression from both alleles
